Assay [1] concerns the target T1, GlunN1/GluN2A glutamate receptors (Homo sapiens, UniProt Q05586+Q12879).
T1 construct: expressed in transfected cells
Kind of assay: Whole-cell patch clamp of mammalian cells (Ionworks Barracuda), positive allosteric modulation (PAM) of NMDA receptor, 2A. Format: cell-based. The note with it: for Emax: HEK293, HEK293 cells; for Emax / Avg Emax 2A (%): % activation of current elicited with EC20 L-glutamate and 30 µM glycine; for EC50 / Avg Emax 2A (%): HEK293 cells; for EC50: co-application with EC20 L-glutamate and 30 µM glycine, 8-point concentration-response. The protocol: (§1) The measurements were perfomed using Ion Works Barracuda platform following this procedure: • Electrophysiological Procedures: • a) Intracellular solution (mM): 50 mM CsCl, 90 mM CsF, 2 mM MgCl2, 5 mM EGTA, 10 mM HEPES. Adjust to pH 7.2 with CsOH. • b) Extracellular solution, HB-PS (composition in mM): NaCl, 137; KCl, 1.0; CaCl2, 5; HEPES, 10; Glucose, 10; pH adjusted to 7.4 with NaOH (refrigerated until use). • c) Holding potential: -70 mV, potential during agonist/PAM application: -40 mV. • Recording procedure: • a) Extracellular buffer will be loaded into the PPC plate wells (11 µL per well). Cell suspension will be pipetted into the wells (9 µL per well) of the PPC planar electrode. • b) Whole-cell recording configuration will be established via patch perforation with membrane currents recorded by on-board patch clamp amplifiers. • c) Two recordings (scans) will be performed. First, during pre-application of test article alone (duration of pre-application - 5 min) and second, during test articles and agonist (EC20 L-glutamate and 30 µM glycine) co-application to detect positive modulatory effects of the test article.
(§2) Test Article Administration: The first pre-application will consist of the addition of 20 µL of 2X concentrated test article solution and, second, of 20 µL of 1X concentrated test article and agonist at 10 µL/s (2 second total application time).
(§3) PAM concentration-response data will be fitted to an equation of the form: % Activation = % L−glutamate EC20 + {(%MAX−%L−glutamateEC20)/[1+(([Test]/; EC50))^N]}, [formula] where [Test] will be the concentration of PAM (test article), EC50 will be the concentration of PAM producing half-maximal activation, N will be the Hill coefficient, % L-glutamate EC20 will be the percentage of the current Elicited with L-glutamate EC20, % MAX is the percentage of the current activated with the highest dose of PAM co-admitted with L-glutamate EC20 and % Activation will be the percentage of the current elicited with L-glutamate EC10-30 at each PAM concentration.
(§4) The maximal amplitude of the evoked currents are measured and defined as Peak Current Amplitude (PCA).
On the technique in general: The patch-clamp technique gives a direct electrical read-out from membranes.

In assay [2] the target is T2, GluN2B glutamate receptors (Homo sapiens, UniProt Q05586+Q13224).
T2 construct: expressed in transfected cells; host or cells: mammalian cells (line not described for GluN2B)
T2 sequence (Q13224 27-1484, other chains not shown): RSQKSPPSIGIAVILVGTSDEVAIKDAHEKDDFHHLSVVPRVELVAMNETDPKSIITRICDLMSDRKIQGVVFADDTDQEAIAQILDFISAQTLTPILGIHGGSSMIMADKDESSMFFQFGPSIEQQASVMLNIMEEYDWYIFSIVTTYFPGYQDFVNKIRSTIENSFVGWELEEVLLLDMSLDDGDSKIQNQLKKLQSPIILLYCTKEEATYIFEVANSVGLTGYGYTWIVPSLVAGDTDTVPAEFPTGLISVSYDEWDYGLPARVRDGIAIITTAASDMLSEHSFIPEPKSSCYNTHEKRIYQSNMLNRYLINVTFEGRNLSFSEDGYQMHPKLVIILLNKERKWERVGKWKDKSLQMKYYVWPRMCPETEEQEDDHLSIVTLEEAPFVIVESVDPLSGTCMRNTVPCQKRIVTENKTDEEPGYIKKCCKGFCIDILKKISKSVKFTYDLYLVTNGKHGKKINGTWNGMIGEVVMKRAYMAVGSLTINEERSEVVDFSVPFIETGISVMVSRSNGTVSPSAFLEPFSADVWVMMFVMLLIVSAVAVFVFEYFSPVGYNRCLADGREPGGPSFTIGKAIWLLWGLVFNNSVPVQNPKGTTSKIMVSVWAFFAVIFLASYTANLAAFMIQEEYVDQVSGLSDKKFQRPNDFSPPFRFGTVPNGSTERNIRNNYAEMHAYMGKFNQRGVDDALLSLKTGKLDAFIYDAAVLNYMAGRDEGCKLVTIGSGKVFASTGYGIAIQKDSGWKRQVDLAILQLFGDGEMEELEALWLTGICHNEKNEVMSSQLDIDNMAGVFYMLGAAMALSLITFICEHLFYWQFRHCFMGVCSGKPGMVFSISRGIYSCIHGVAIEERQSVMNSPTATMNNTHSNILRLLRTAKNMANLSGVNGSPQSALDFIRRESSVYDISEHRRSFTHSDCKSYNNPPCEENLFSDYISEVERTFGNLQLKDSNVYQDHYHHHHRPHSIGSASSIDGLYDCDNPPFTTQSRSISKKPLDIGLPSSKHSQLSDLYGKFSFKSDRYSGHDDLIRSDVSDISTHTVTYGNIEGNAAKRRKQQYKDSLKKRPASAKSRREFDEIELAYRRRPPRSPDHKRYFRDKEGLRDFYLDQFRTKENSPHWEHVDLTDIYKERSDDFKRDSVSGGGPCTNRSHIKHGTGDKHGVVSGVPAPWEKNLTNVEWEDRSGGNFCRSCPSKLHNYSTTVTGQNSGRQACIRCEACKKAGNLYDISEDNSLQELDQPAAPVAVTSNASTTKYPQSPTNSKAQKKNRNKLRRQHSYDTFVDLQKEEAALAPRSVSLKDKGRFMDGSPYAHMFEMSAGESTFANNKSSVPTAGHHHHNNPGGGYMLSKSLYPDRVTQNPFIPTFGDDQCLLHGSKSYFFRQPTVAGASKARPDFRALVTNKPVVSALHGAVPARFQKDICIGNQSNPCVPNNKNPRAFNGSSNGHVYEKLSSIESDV
In words: Whole-cell patch clamp of mammalian cells (Ionworks Barracuda), positive allosteric modulation (PAM) of NMDA receptor, 2B. It counts as cell-based. The settings on record: for Emax / Avg Emax 2B (%): % activation of current elicited with EC20 L-glutamate and 30 µM glycine; for EC50: co-application with EC20 L-glutamate and 30 µM glycine, 8-point concentration-response. The method, then: as §1, §2, §3, §4

Data on 19 molecules can be found in patent EP3529257B1, “[…] METHODS OF USE THEREOF” (Sage Therapeutics, Inc., priority 2016, dated 2018).

In general, Emax refers to the size of the effect at its maximum, as opposed to the concentration needed. As a reminder, the EC50 is the midpoint of the concentration-response curve.

T1 sequence (Q12879 23-1464, other chains not shown): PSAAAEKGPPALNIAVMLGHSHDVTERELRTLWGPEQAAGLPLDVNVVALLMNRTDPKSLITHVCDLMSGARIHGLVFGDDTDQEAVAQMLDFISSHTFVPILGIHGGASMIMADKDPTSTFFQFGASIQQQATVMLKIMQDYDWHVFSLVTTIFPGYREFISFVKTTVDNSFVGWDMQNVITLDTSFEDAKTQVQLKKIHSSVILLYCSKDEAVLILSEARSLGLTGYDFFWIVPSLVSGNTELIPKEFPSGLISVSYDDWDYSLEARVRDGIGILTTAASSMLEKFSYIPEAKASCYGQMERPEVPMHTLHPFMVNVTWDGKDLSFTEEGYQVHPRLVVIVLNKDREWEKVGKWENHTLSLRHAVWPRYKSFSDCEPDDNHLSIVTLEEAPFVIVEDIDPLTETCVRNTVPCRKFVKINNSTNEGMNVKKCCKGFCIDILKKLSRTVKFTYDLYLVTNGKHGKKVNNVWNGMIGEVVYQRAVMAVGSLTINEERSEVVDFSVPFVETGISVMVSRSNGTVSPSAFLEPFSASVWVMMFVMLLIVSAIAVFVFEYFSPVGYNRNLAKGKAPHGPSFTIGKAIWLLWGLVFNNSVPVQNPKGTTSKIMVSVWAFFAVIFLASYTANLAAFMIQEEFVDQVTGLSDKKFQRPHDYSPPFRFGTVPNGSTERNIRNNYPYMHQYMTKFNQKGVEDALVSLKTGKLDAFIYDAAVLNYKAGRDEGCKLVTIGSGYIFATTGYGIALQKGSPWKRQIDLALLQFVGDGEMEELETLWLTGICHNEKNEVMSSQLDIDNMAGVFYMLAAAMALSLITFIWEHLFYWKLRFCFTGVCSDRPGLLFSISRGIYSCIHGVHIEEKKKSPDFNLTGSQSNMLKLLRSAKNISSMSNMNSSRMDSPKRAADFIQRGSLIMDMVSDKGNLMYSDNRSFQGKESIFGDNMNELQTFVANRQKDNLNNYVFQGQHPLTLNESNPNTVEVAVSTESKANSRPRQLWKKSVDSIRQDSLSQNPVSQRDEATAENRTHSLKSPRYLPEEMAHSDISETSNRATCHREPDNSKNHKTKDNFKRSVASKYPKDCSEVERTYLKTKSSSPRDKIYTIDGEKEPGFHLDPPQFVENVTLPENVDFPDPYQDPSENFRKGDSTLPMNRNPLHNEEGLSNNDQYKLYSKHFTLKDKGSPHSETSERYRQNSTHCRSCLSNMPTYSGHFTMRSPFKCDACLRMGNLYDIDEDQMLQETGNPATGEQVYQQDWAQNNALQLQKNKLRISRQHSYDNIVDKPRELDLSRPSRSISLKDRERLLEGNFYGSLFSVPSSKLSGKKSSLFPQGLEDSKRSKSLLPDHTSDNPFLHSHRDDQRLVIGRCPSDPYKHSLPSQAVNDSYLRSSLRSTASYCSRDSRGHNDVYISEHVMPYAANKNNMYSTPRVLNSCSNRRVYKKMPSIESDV

For `C[C@H](CCCC1(O)CC1)[C@H]1CC[C@H]2[C@@H]3CC[C@H]4C[C@](O)(C(F)(F)F)CC[C@]4(C)[C@H]3CC[C@]12C` [Compound 4115], the Emax turned out to be 186% in assay [1] and 195% in assay [2].
In assay [1], `C[C@H](CCC1(O)CCC(C(C)(C)C)CC1)[C@H]1CC[C@H]2[C@@H]3CC[C@H]4C[C@](O)(C(F)(F)F)CC[C@]4(C)[C@H]3CC[C@]12C` (stereo partly drawn) [Compound 4360] displayed an Emax of 38.1% and a concentration for a half-maximal effect (EC50) of over 10000 nM. In assay [2], the maximum response (Emax) was determined as 14.6% and the concentration giving a half-maximal response (EC50) is over 10000 nM.
As to `C[C@H](CCC1(O)CCC(OC(F)F)CC1)[C@H]1CC[C@H]2[C@@H]3CC[C@H]4C[C@](O)(C(F)(F)F)CC[C@]4(C)[C@H]3CC[C@]12C` (stereo partly drawn) [Compound 5131], in assay [1], the “Avg Emax 2A (%)” value is 52.9% and the EC50 turned out to be 33.6 nM. Also, in assay [2], the “Avg Emax 2B (%)” value is on record as 39.0% and the EC50 was over 10000 nM.
On the same counts, the results for `C[C@H](CCC1(O)CCC(C)(C)CC1)[C@H]1CC[C@H]2[C@@H]3CC[C@@H]4C[C@](O)(C(F)(F)F)CC[C@]4(C)[C@H]3C(=O)C[C@]12C` [Compound 5294] are 32.4%, over 10000 nM, 13.9% and over 10000 nM.
Turning to `CC[C@]1(O)CC[C@@]2(C)C(=CC[C@H]3[C@@H]4CC[C@H]([C@H](C)CC[C@H](O)c5ccc(F)cc5)[C@@]4(C)CC[C@@H]32)C1` [Compound 7146], the values for the Emax in assay [1] and in assay [2] were 104% and 167%, respectively.
On the same counts, the results for `CC[C@]1(O)CC[C@@]2(C)C(=CC[C@H]3[C@@H]4CC[C@H]([C@H](C)CC[C@@H](O)c5ccccc5F)[C@@]4(C)CC[C@@H]32)C1` [Compound 7282] are 208% and 290%.
On the same counts, the results for `C[C@H](CC[C@@](C)(O)c1ccccc1)[C@H]1CC[C@H]2[C@@H]3CC=C4C[C@@](C)(O)CC[C@]4(C)[C@H]3CC[C@]12C` [Compound 7467] are 20.5% and 8.8%.
Take `CC[C@]1(O)CC[C@H]2C(=CC[C@@H]3[C@@H]2CC[C@]2(C)[C@@H]([C@H](C)CC[C@H](O)C(C)C)CC[C@@H]32)C1` [Compound 8462]: the results for the Emax in assay [1] and in assay [2] were 273% and 281%, respectively.
The corresponding values for `CC[C@]1(O)CC[C@H]2C(=CC[C@@H]3[C@@H]2CC[C@]2(C)[C@@H]([C@H](C)CC[C@@H](O)C(C)C)CC[C@@H]32)C1` [Compound 8463] are 291% and 324%.
On the same counts, the results for `CC[C@]1(O)CC[C@H]2C(=CC[C@@H]3[C@@H]2CC[C@]2(C)[C@@H]([C@H](C)CC[C@]4(O)CCOC4)CC[C@@H]32)C1` [Compound 8603] are 294% and 271%.
Take `CC[C@]1(O)CC[C@H]2C(=CC[C@@H]3[C@@H]2CC[C@]2(C)[C@@H]([C@H](C)CCC4(O)CCOC4)CC[C@@H]32)C1` (stereo partly drawn) [Compound 8689]: the results for the Emax in assay [1] and in assay [2] were 320% and 439%, respectively.
As to `C[C@H](CC[C@](C)(O)C(F)(F)F)[C@H]1CC[C@H]2[C@@H]3CC=C4C[C@@](C)(O)CC[C@@H]4[C@H]3CC[C@]12C` [Compound 9062], in assay [1], the “Avg Emax 2A (%)” value is recorded as 66.5% and the midpoint of the response, the EC50, lay at 34.5 nM. In addition, in assay [2], the “Avg Emax 2B (%)” value is reported as 52.2% and the EC50 turned out to be 179 nM.
On to `CC[C@]1(O)CC[C@H]2C(=CC[C@@H]3[C@@H]2CC[C@]2(C)[C@@H]([C@H](C)CCC[C@@H](O)C(C)C)CC[C@@H]32)C1` [Compound 10114], for which, in assay [1], the “Avg Emax 2A (%)” value was 146.3% and the EC50 was determined as 321 nM. Also, in assay [2], the “Avg Emax 2B (%)” value came out at 179.1% and the midpoint of the response, the EC50, lay at 506 nM.
The corresponding values for `CC[C@]1(O)CC[C@H]2C(=CC[C@@H]3[C@@H]2CC[C@]2(C)[C@@H]([C@H](C)CCCC4(O)CCC(C)(C)CC4)CC[C@@H]32)C1` [Compound 10317] are 56.7%, over 10000 nM, 59.9% and over 10000 nM.
On the same counts, the results for `CCC(O)CCC[C@@H](C)[C@H]1CC[C@H]2[C@@H]3CC=C4C[C@](O)(CC)CC[C@@H]4[C@H]3CC[C@]12C` (stereo partly drawn) [Compound 10673] are 215.5%, 254 nM, 213.5% and 180 nM.
Turning to `CC[C@H](O)CCC[C@@H](C)[C@H]1CC[C@H]2[C@@H]3CC=C4C[C@](O)(CC)CC[C@@H]4[C@H]3CC[C@]12C` [Compound 10949], in assay [1], the “Avg Emax 2A (%)” value is 97.4% and a half-maximal effect (EC50) was put at 66.4 nM. For the same molecule, in assay [2], the “Avg Emax 2B (%)” value turned out to be 147.4% and a half-maximal response (EC50) required 138 nM.
The corresponding values for `C[C@H](CCC[C@H](O)C(F)(F)F)[C@H]1CC[C@H]2[C@@H]3CC[C@H]4C[C@](O)(C(F)(F)F)CC[C@]4(C)[C@H]3CC[C@]12C` [Compound 11934] are 113.4%, 729 nM, 70.0% and 470 nM.
The corresponding values for `C[C@H](CCC[C@@H](O)C(C)(C)C)[C@H]1CC[C@H]2[C@@H]3CC[C@H]4C[C@](O)(C(F)(F)F)CC[C@]4(C)[C@H]3CC[C@]12C` [Compound 12055] are 113.8%, 506 nM, 184.7% and 1130 nM.
On the same counts, the results for `C[C@H](CCC[C@H](O)C(C)(C)C)[C@H]1CC[C@H]2[C@@H]3CC[C@H]4C[C@](O)(C(F)(F)F)CC[C@]4(C)[C@H]3CC[C@]12C` [Compound 12156] are 43.2%, 154 nM, 111.2% and 2460 nM.
